Experimental data published in patent US20070155023A1, “Identification of proteins and other species with emissive chelating label” (Massachusetts Institute of Technology, priority 2005, published 2007).

Experiments:
[1] = Photophysical properties (absorbance, emission, quantum yield) in pH 7 buffer; format: physicochemical; conditions: for Quantum yield Φ: no metal ion, pH 7, 22° C., relative to fluorescein
Text: General Procedure. Acetonitrile (MeCN) was dried over 3 Å molecular sieves. Triethylamine (Et3N) and chloroform (CHCl3) were purchased from Aldrich and used as received. 6-Carboxy-2′,7′-dichlorofluorescein-3′,6′-diacetatesuccinimidyl ester was synthesized by a method previously developed in this laboratory. ^1N,N-Bis(carboxymethyl)-L-lysine hydrate was purchased from Fluka and used as received. ^1H and ^13C NMR spectra were acquired on either a Varian 300 Mhz or a Varian 500 MHz spectrometer and referenced to internal standards. IR spectra were collected on an Avatar 360 FT-IR instrument. Melting points were measured with a Mel-Temp apparatus. Fluorescence spectra were obtained on a Hitachi F-3020 spectrofluorimeter, and UV/vis spectra were acquired on a Cary 1E spectrophotometer. Low-resolution mass spectra were collected on an Agilent 1100 Series LC/MSD system. High-resolution mass spectra were provided by staff at the MIT Department of Chemistry Instrumentation Facility. Preliminary cell images were acquired with a Nikon Eclipse TS100 microscope equipped with an RT Diagnostics camera with illumination provided by a Chiu Mercury 100 W lamp. Magnification was 20×. The cell imaging system was operated with Spot Advanced software. Fluorescence images were obtained using a FITC-HYQ filter cube (excitation 460-500 nm, bandpass 510-560 nm). Select cell images were acquired with a LSM510 confocal microscope.
Aqueous solutions were prepared with Millipore water. A 2.25 mM stock solution of NTA-DCF in DMSO was prepared, separated into aliquots, stored at −25° C., and thawed in the dark immediately before use. All spectroscopic data were collected in a pH 7 buffer solution of 50 mM piperazine-N,N′-bis(2-ethanesulfonic acid) (PIPES) and 100 mM KCl unless noted otherwise. Solution magnetic susceptibilities were measured by the Evan's method. Spectroscopic data were taken at room temperature (22° C.). Quantum yields were measured relative to fluorescein in 0.1 M NaOH (Φ=0.95).
The photophysical properties of the signaling entity were measured to observe the effect that introduction of the NTA functionality may have on the absorbance and/or emission of the signaling entity.

HeLa cells = assay: Cell permeability of living HeLa cells; format: in vitro ADME; conditions: alone or as its Ni^2+ adduct, 5 μM, 5 min, 22° C., PBS
Procedure: (§1) The cells as described in Example 3 were used for labeling with NTA-DCF two days after transfection with plasmid. Immediately prior to labeling, the cells were washed once with PBS. A stock solution of complexed Ni^2+-NTA-DCF was prepared by mixing 2.5 mM NiCl2 and 2.5 mM NTA-DCF in a 1:1 ratio in PBS. HeLa and HEK 293-T cells were each washed once with PBS, then incubated with 5 μM Ni^2+-NTA-DCF for 5 min at 22° C. in PBS. The cells were subsequently rinsed twice with PBS, fixed with 4% paraformaldehyde for 5 min, washed with two portions of PBS, and mounted using Vectashield anti-fading reagent (Vector Labs). As a negative control, a cell sample was incubated with NTA-DCF without added Ni^2+. In order to gauge the reversibility of staining, 5 mM EDTA was added to a sample of cells stained with 5 μM NTA-DCF and 5 μM Ni^2+. […] This impermeability can be exploited to label and image selectively proteins on the extracellular side of the cell membrane. The NTA-DCF composition was premixed with an equimolar concentration of NiCl2, and the mixture was added to a sample containing either HeLa or HEK 293-T cells.

HEK 293-T cells = assay: Cell permeability of living HEK 293-T cells; format: in vitro ADME; conditions: alone or as its Ni^2+ adduct, 5 μM, 5 min, 22° C., PBS
Procedure: as §1

[2] = system: polyhistidine sequences on HeLa cells transfected with pDisplay-6×His; assay: Fluorescent labeling of extracellular His6 tags on transfected HeLa cells (confocal microscopy); format: cell-based
Procedure: (§2) This example describes the incorporation of an affinity tag within a target analyte (e.g., a cell). A polyhistidine affinity tag was incorporated within a plasmid, which was then used for transfection with the target cell. pDisplay-6×His was constructed by introduction of an oligonucleotide encoding for a His6 tag (5′-CATCATCATCATCATCAT-3′) into a pDisplay plasmid (Invitrogen) digested with BglII and SalI.
(§3) Both HeLa and HEK 293-T cells were cultured in Dulbecco's Modified Eagle Medium (DMEM) supplemented with 10% fetal calf serum (FCS, Invitrogen), glutamine (2 mM), Penicillin (100 units/mL) and Streptomycin (100 μg/mL). The cells were passed and plated on 18 mm glass coverslips coated with 0.2% gelatin 36 hours before transfection. […]
(§4) The fluorescently-labeled cells may be monitored by confocal microscopy. Confocal images of cells (NTA-DCF staining and mRFP fluorescence) were obtained with a Zeiss LSM510 microscope equipped with a 100× objective. […] Images of cells stained with Hoechst 33285 were obtained with a Zeiss Axioscope fluorescence microscope equipped with a 40× objective and a Hamamatsu digital camera. […]
(§5) A metal chelator was added to observe the effect on binding of NTA-DCF probe to the target cell. […] In the absence of EDTA or a similar metal scavenging agent, the label-protein construct persisted for at least 20 min after washing, but its stability has not yet been fully assessed.

[3] = system: polyhistidine sequences on HEK 293-T cells transfected with pDisplay-6×His; assay: Fluorescent labeling of extracellular His6 tags on transfected HEK 293-T cells (confocal microscopy); format: cell-based
Procedure: as §2, §3, §4, §5

[4] = system: cell cultures (nuclei stained with Hoechst 33285); assay: Nuclear morphology study of NTA-DCF toxicity; format: cell-based
Procedure: Cells were incubated with either NTA-DCF or PBS for five min, washed twice with PBS, and fixed for 5 min with 4% p-formaldehyde. After fixation, the cells were rinsed four times with PBS (5 min each wash). Hoechst 33285 dye (Molecular Probes) was added to the second rinse such that the final concentration reached 2 μg/ml.

[5] = pDisplay-6×His, premixed with equimolar NiCl2

Row | SMILES | Quantum yield Φ ([1]; 50 mM PIPES, 100 mM KCl) | Emission λmax ([1]; pH 7 buffer) [nm] | Decrease in fluorescence emission upon addition of NiCl2 ([1]; 50 mM PIPES, 100 mM KCl, pH 7.0, FIG. 2) [%] | Quantum yield Φ after chelation of a paramagnetic metal ion ([1]; after chelation of Ni^2+, relative to fluorescein in 0.1 M NaOH) | Extinction coefficient ε ([1]; at 504 nm) [M⁻¹ cm⁻¹] | Absorption band ([1]; pH 7 buffer) [nm] | Entry into cells (HeLa cells) | Entry into cells (HEK 293-T cells) | Binding of the probe when Ni^2+ is unavailable ([2]; 5 μM NTA-DCF without NiCl2, 5 min, FIG. 4B) | Fluorescent labeling of polyhistidine sequences on extracellular plasma membrane surface [2, 5] | Binding of the probe when the polyhistidine tag is not expressed ([3]; pDisplay without His6 tags, 5 μM NTA-DCF and 5 μM NiCl2, FIG. 5B) | Fluorescent labeling of polyhistidine sequences on extracellular plasma membrane surface [3, 5] | Toxicity (nuclear morphology study) ([4]; 5-μM dose, five min incubation, FIG. 7) | Change of size and shape of nuclei ([4]; addition of NTA-DCF, five min, Hoechst staining) | melting point
1 | O=C1OC2(c3cc(Cl)c(O)cc3Oc3cc(O)c(Cl)cc32)c2ccccc21 [2′,7′-dichlorofluorescein, reference compound] | 0.88 | 526 | – | – | – | – | – | – | – | – | – | – | – | – | –
2 | O=C(O)CN(CC(=O)O)C(CCCCNC(=O)c1ccc(C(=O)O)c(-c2c3cc(Cl)c(=O)cc-3oc3cc(O)c(Cl)cc23)c1)C(=O)O (centres unmarked) [NTA-DCF, N-[5-(Bis-carboxymethyl-amino)-5-carboxy-pentyl]-2-(2,7-dichloro-6-hydroxy-3-oxo-3H-xanthen-9-yl)-terephthalamic acid] | 0.78 | 527 | 5 | 0.72 | 86000 | 504 | not enter | not enter | blocked | fluorescently label | blocked | fluorescently label | not toxic | Neither the size nor shapes of the nuclei change | 182 °C (dec.)
